Tests used:
mouse tumors = assay: CEST MRI of tumor-bearing animals before and after sucralose injection; format: in vivo; settings: tumor region; sucralose 100 mM intra peritoneally; at 40 minutes; vs baseline
Method: (§1) Different concentration of Splenda and sucralose were prepared in PBS and all the experiments were performed at 37° C. on a 9.4 T horizontal bore small animal MR scanner (Varian, Palo Alto, CA). CEST images were acquired at different saturation power and saturation lengths from frequency offset −5 to 5 ppm in step size of 0.1 ppm. Acquired CEST images were corrected for B0 and used to generate CEST contrast map using Equation [1].
(§2) [formula] where S−ve and S+ve are the B0 corrected MRI signals obtained at −1 ppm and +1 ppm respectively, and S0 is the image obtained without any saturation. CEST contrast was further corrected for B1 and mapped as false-colors onto anatomical proton image. The CEST asymmetry plots were generated by plotting the relative water signal difference at frequency offset from 0 to 4.8 ppm. • FIG. 1: Z-spectra (A), asymmetry plot (B), and CEST map (C) of CEST effect from 0.5% Splenda. […]
(§3) Imaging was performed in tumor-bearing animals at a 9.4 T horizontal bore Varian system. […] Respiration and body temperature were continuously monitored using a MRI-compatible small animal monitor system (SA Instruments, Inc., Stony Brook, NY). CEST imaging was performed using a custom-programmed, segmented radiofrequency GRE readout pulse sequence, with a frequency selective continuous wave saturation preparation pulse. […]

rat brain tumor = assay: SWEETEST (CEST) MRI, sucralose injection studies in a rat brain tumor; format: in vivo; settings: sucralose 300 mM via tail vein, 40 minute post injection, vs baseline
Method: as §1, §2, §3

OC[C@H]1O[C@H](O[C@]2(CCl)O[C@H](CCl)[C@@H](O)[C@@H]2O)[C@H](O)[C@@H](O)[C@H]1Cl [sucralose]
percent change in the contrast post injection of sucralose (mouse tumors): about 100%
increase in SWEETEST contrast (rat brain tumor): ~80%
